Where two headings read alike, the source gives them in different places. *1 amine or outer side, *2 acyl side, *3 side chain or, on linkers, in order; H or OH if unused. Where a SMILES comes first, the peptide text is derived from it. Bridges are numbered along the chain shown (N, C = ends). [ ]: non-standard residue; d: D form. The star is where a group is joined. X39 = CN1CCC(n2cc(-c3ccc(-c4ccc(Cl)cc4C[C@@H](C(=O)[*:2])N(C)[*:1])cc3)cn2)CC1; NMePhe(2-(4-MorPh),5-Cl) = CN[C@@H](Cc1cc(Cl)ccc1-c1ccc(N2CCOCC2)cc1)C(=O)O; X61 = Cc1nc2c(F)cc(-c3ccc(Cl)cc3C[C@@H](C(=O)[*:2])N(C)[*:1])cc2n1C(C)C; X100 = CC(=O)NC1CC=C(c2ccc(Cl)cc2C[C@@H](C(=O)[*:2])N(C)[*:1])CC1; X18 = CC(=O)N1CCC(=Cc2ccc(Cl)cc2C[C@@H](C(=O)[*:2])N(C)[*:1])CC1; X24 = CN([C@@H](Cc1cc(Cl)ccc1-c1cnn(C(C)(C)C)c1)C(=O)[*:2])[*:1]; X16 = CN([C@@H](Cc1cc(Cl)ccc1-c1cnc2c(cnn2C)c1)C(=O)[*:2])[*:1]; NMehhhLys(Me) = CN([C@@H](CCCCCCCN(C)[*:3])C(=O)[*:2])[*:1]; Spiro(3.3)heptane2CO(2-CF3) = O=C(C1(C(F)(F)F)CC2(CCC2)C1)*; X22 = CN([C@@H](Cc1cc(Cl)ccc1-c1cnn(C)c1)C(=O)[*:2])[*:1]; NMe(hhhLys) = CN([C@@H](CCCCCCCN[*:3])C(=O)[*:2])[*:1]; X96 = CN([C@@H](Cc1cc(Cl)cc2ccn(C)c12)C(=O)[*:2])[*:1]; X33 = CN([C@@H](Cc1cc(Cl)cc2c1OCCO2)C(=O)[*:2])[*:1]; Cyclobutanecarbonyl(1-CF3) = O=C(C1(C(F)(F)F)CCC1)*; cBuCO(3,3-F2-1-CF3) = O=C(C1(C(F)(F)F)CC(F)(F)C1)*; X4 = Cc1ccc(Cl)cc1C[C@@H](C(=O)[*:2])N(C)[*:1]; Pro(trans-4-F) = O=C(O)[C@@H]1C[C@@H](F)CN1; Gly(cPr) = N[C@H](C(=O)O)C1CC1
Key:
[1] = target: T1, CyclinA2/CDK2 (Homo sapiens, UniProt P20248); test: Fluorescence Polarization (FP) competitive binding assay, Cyclin A2/Cdk2;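 further: plates equilibrated two hours at room temperature before polarization reading, IC50 fitted from eight-concentration compound titration curves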
T1 construct: purchased CRELUX Protein Services

[2] = target: T2, CyclinB1/CDK1 (Homo sapiens, UniProt P14635); test: Fluorescence Polarization (FP) competitive binding assay, Cyclin B1/Cdk1;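 further: fluorescence polarization read after equilibration at room temperature, with IC50 taken from serially diluted dose-response curves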
T2 construct: purchased Eurofins, discovery 14-450

[3] = target: T3, CyclinE1/CDK2 (Homo sapiens, UniProt P24864); test: Fluorescence Polarization (FP) competitive binding assay, Cyclin E1/Cdk2;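 further: readings taken after two-hour equilibration at room temperature in HEPES buffer with NaCl, DTT, NP-40 and BSA, IC50 fitted from eight-concentration serial dilution series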
T3 construct: purchased Eurofins, discovery 14-475

[4] = test system: WI-38 cells; test: MTT proliferation assay, WI-38; format: cell-based; conditions: 3 days compound exposure, 1:3 serial dilution starting at 10 μM;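 further: Eight- or ten-point dilution series, with exposure length chosen to span about three to four cell doublings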
[5] = test system: NCI-H1048 cells; test: MTT proliferation assay, NCI-H1048; format: cell-based; conditions: 5 days compound exposure, 1:3 serial dilution starting at 10 μM;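 further: Dose-response in 96-well plates over 8 or 10 concentration points, with exposure spanning 3-4 cell doublings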
[6] = test system: OVCAR3 cells; test: MTT proliferation assay, OVCAR3; format: cell-based; conditions: 5 days compound exposure, 1:3 serial dilution starting at 10 μM;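 further: compound given as an 8- or 10-point series, one day after plating, with exposure covering roughly 3-4 cell doublings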
[7] = 8 nM Cyclin A2/Cdk2, 2 nM FAM probe, average of 2-3 independent experiments, read-out: Cyclin A FP IC50
[8] = 10 nM Cyclin B1/Cdk1, 2 nM FAM probe; average of 2-3 independent experiments; read-out: Cyclin B FP IC50
[9] = 10 nM Cyclin E1/Cdk2, 2 nM FAM probe, average of 2-3 independent experiments, read-out: Cyclin E FP IC50
[10] = read-out: Cyclin B FP IC50; 10 nM Cyclin B1/Cdk1, 2 nM FAM probe; average of 2-3 independent experiments

Compound | IC50 [1, 7] [nM] | IC50 [2, 8] [nM] | IC50 [3, 9] [nM] | GI50 [4] [nM] | GI50 [5] [nM] | GI50 [6] [nM] | IC50 [1] [nM] | IC50 [2, 10] [nM] | IC50 [3] [nM]
CC(C)C[C@@H]1NC(=O)[C@@H](N(C)C(=O)[C@@H](NC(=O)[C@@H]2C[C@@H](F)CN2C(=O)C2(C(F)(F)F)CC(F)(F)C2)C2CC2)CCCCCCCN(C)C(=O)[C@H](Cc2cc(Cl)cc3ccn(C)c23)N(C)C1=O [Example 392, (2S,4R)—N—((S)-2-(((3S,6S,9S)-3-((5-chloro-1-methyl-1H-indol-7-yl)methyl)-6-isobutyl-1,4-dimethyl-2,5,8-trioxo-1,4,7-triazacyclohexadecan-9-yl)(methyl)amino)-1-cyclopropyl-2-oxoethyl)-1-(3,3-difluoro-1-(trifluoromethyl)cyclobutane-1-carbonyl)-4-fluoropyrrolidine-2-carboxamide] ({cBuCO(3,3-F2-1-CF3)}-[Pro(trans-4-F)][Gly(cPr)][NMehhhLys(Me)]L[X96]; lactam 3-C) | 230 | 20 | 830 | 14700 | 170 | 170 |  |  | 
CC(C)C[C@@H]1NC(=O)[C@@H](N(C)C(=O)[C@H](CCC(=O)N(C)C)NC(=O)[C@@H]2C[C@@H](F)CN2C(=O)C2(C(F)(F)F)CC(F)(F)C2)CCCCCCCN(C)C(=O)[C@H](Cc2cc(Cl)ccc2-c2ccc(N3CCOCC3)cc2)N(C)C1=O [Example 419, (S)—N1-((3S,6S,9S)-3-((4-chloro-4′-morpholino-[1,1′-biphenyl]-2-yl)methyl)-6-isobutyl-1,4-dimethyl-2,5,8-trioxo-1,4,7-triazacyclohexadecan-9-yl)-2-((2S,4R)-1-(3,3-difluoro-1-(trifluoromethyl)cyclobutane-1-carbonyl)-4-fluoropyrrolidine-2-carboxamido)-N1,N5,N5-trimethylpentanediamide] ({cBuCO(3,3-F2-1-CF3)}-[Pro(trans-4-F)]E(NMe2)[NMehhhLys(Me)]L[NMePhe(2-(4-MorPh),5-Cl)]; lactam 3-C) | 20 | 20 | 540 | 1990 | 20 | 20 |  |  | 
CC(=O)N1CC=C(c2ccc(Cl)cc2C[C@H]2C(=O)NCCC=CCCC[C@H](N(C)C(=O)[C@@H](NC(=O)[C@@H]3C[C@@H](F)CN3C(=O)C3(C(F)(F)F)CC(F)(F)C3)C3CC3)C(=O)N[C@@H](CC(C)C)C(=O)N2C)CC1 [Example 286] | 80 | 20 | 4020 | 6500 | 60 | 50 |  |  | 
Cc1nc2c(F)cc(-c3ccc(Cl)cc3C[C@H]3C(=O)N(C)CCCCCCC[C@H](N(C)C(=O)[C@@H](NC(=O)[C@@H]4C[C@@H](F)CN4C(=O)C4(C(F)(F)F)CC(F)(F)C4)C4CC4)C(=O)N[C@@H](CC(C)C)C(=O)N3C)cc2n1C(C)C [Example 231] ({cBuCO(3,3-F2-1-CF3)}-[Pro(trans-4-F)][Gly(cPr)][NMehhhLys(Me)]L[X61]; lactam 3-C) |  |  |  | 13400 | 20 | 40 | 60 | 20 | 2940
CC(C)C[C@@H]1NC(=O)[C@@H](N(C)C(=O)[C@@H](NC(=O)[C@@H]2C[C@@H](F)CN2C(=O)C2(C(F)(F)F)CC(F)(F)C2)C2CC2)CCCCCCCN(C)C(=O)[C@H](Cc2cc(Cl)ccc2-c2ccc(-c3cnn(C4CCN(C)CC4)c3)cc2)N(C)C1=O [Example 380] ({cBuCO(3,3-F2-1-CF3)}-[Pro(trans-4-F)][Gly(cPr)][NMehhhLys(Me)]L[X39]; lactam 3-C) | 30 | 20 | 2170 | 1170 | 20 | 30 |  |  | 
CC(=O)NC1CC=C(c2ccc(Cl)cc2C[C@H]2C(=O)N(C)CCCCCCC[C@H](N(C)C(=O)[C@@H](NC(=O)[C@@H]3C[C@@H](F)CN3C(=O)C3(C(F)(F)F)CC(F)(F)C3)C3CC3)C(=O)N[C@@H](CC(C)C)C(=O)N2C)CC1 (stereo partly drawn) [Example 60] ({cBuCO(3,3-F2-1-CF3)}-[Pro(trans-4-F)][Gly(cPr)][NMehhhLys(Me)]L[X100]; lactam 3-C) | 20 | 20 | 740 | 5720 | 10 | 10 |  |  | 
CC(C)C[C@@H]1NC(=O)[C@@H](N(C)C(=O)[C@@H](NC(=O)[C@@H]2C[C@@H](F)CN2C(=O)C2(C(F)(F)F)CCC2)C2CC2)CC=CCCCCN(C)C(=O)[C@H](Cc2cc(Cl)cnc2OC2CC2)N(C)C1=O [Example 106] | 120 | 20 | 240 | 6390 | 410 | 540 |  |  | 
CC(C)C[C@@H]1NC(=O)[C@@H](N(C)C(=O)[C@@H](NC(=O)[C@@H]2C[C@@H](F)CN2C(=O)C2(C(F)(F)F)CC(F)(F)C2)C2CC2)CCCCCCCN(C)C(=O)[C@H](Cc2cc(Cl)ccc2-c2cnn(C(C)(C)C)c2)N(C)C1=O [Example 187] ({cBuCO(3,3-F2-1-CF3)}-[Pro(trans-4-F)][Gly(cPr)][NMehhhLys(Me)]L[X24]; lactam 3-C) | 20 | 20 | 340 | 8660 | 10 | 10 |  |  | 
CC(C)C[C@@H]1NC(=O)[C@@H](N(C)C(=O)[C@@H](NC(=O)[C@@H]2C[C@@H](F)CN2C(=O)C2(C(F)(F)F)CC(F)(F)C2)C2CC2)CCCCCCCNC(=O)[C@H](Cc2cc(Cl)cc3c2OCCO3)N(C)C1=O [Example 330] ({cBuCO(3,3-F2-1-CF3)}-[Pro(trans-4-F)][Gly(cPr)][NMe(hhhLys)]L[X33]; lactam 3-C) | 30 | 20 | 100 | 18500 | 10 | 10 |  |  | 
CC(C)C[C@@H]1NC(=O)[C@@H](N(C)C(=O)[C@@H](NC(=O)[C@@H]2C[C@@H](F)CN2C(=O)C2(C(F)(F)F)CCC2)C2CC2)CCCCCCCNC(=O)[C@H](Cc2cc(Cl)ccc2-c2cnn(C)c2)N(C)C1=O [Example 70] ({Cyclobutanecarbonyl(1-CF3)}-[Pro(trans-4-F)][Gly(cPr)][NMe(hhhLys)]L[X22]; lactam 3-C) | 20 | 20 | 290 | 10100 | 10 | 10 |  |  | 
CC(C)C[C@@H]1NC(=O)[C@@H](N(C)C(=O)[C@@H](NC(=O)[C@@H]2C[C@@H](F)CN2C(=O)C2(C(F)(F)F)CC3(CCC3)C2)C2CC2)CCCCCCCN(C)C(=O)[C@H](Cc2cc(Cl)ccc2-c2cnn(C)c2)N(C)C1=O [Example 203] ({Spiro(3.3)heptane2CO(2-CF3)}-[Pro(trans-4-F)][Gly(cPr)][NMehhhLys(Me)]L[X22]; lactam 3-C) |  |  |  | 3700 | 60 | 50 | 40 | 20 | 1260
CC(=O)N1CCC(=Cc2ccc(Cl)cc2C[C@H]2C(=O)NCCCCCCC[C@H](N(C)C(=O)[C@@H](NC(=O)[C@@H]3C[C@@H](F)CN3C(=O)C3(C(F)(F)F)CC(F)(F)C3)C3CC3)C(=O)N[C@@H](CC(C)C)C(=O)N2C)CC1 [Example 288] ({cBuCO(3,3-F2-1-CF3)}-[Pro(trans-4-F)][Gly(cPr)][NMe(hhhLys)]L[X18]; lactam 3-C) | 30 | 20 | 360 | 13800 | 20 | 20 |  |  | 
Cc1ccc(Cl)cc1C[C@H]1C(=O)NCCCCCCC[C@H](N(C)C(=O)[C@@H](NC(=O)[C@@H]2C[C@@H](F)CN2C(=O)C2(C(F)(F)F)CC(F)(F)C2)C2CC2)C(=O)N[C@@H](CC(C)C)C(=O)N1C [Example 270] ({cBuCO(3,3-F2-1-CF3)}-[Pro(trans-4-F)][Gly(cPr)][NMe(hhhLys)]L[X4]; lactam 3-C) | 60 | 20 | 370 | 13400 | 80 | 70 |  |  | 
CC(C)C[C@@H]1NC(=O)[C@@H](N(C)C(=O)[C@@H](NC(=O)[C@@H]2C[C@@H](F)CN2C(=O)C2(C(F)(F)F)CC(F)(F)C2)C2CC2)CC=CCCCCN(C)C(=O)[C@H](Cc2cc(F)ccc2C2=CCC(O)CC2)N(C)C1=O (stereo partly drawn) [Example 47] | 40 | 20 | 800 | 12900 | 30 | 130 |  |  | 
CC(C)C[C@@H]1NC(=O)[C@@H](N(C)C(=O)[C@@H](NC(=O)[C@@H]2C[C@@H](F)CN2C(=O)C2(C(F)(F)F)CC(F)(F)C2)C2CC2)CC=CCCCCN(C)C(=O)[C@H](Cc2cc(Cl)ccc2-c2cnn(C3CC3)c2)N(C)C1=O [Example 78] | 40 | 20 | 640 | 4520 | 30 | 40 |  |  | 
CC(C)C[C@@H]1NC(=O)C(N(C)C(=O)[C@@H](NC(=O)[C@@H]2C[C@@H](F)CN2C(=O)C2(C(F)(F)F)CC(F)(F)C2)C2CC2)C/C=C\CCCCN(C)C(=O)[C@H](Cc2cc(Cl)ccc2-c2ccc(N3CCN(C)CC3)cc2)N(C)C1=O (stereo partly drawn) [Example 397] | 20 | 20 | 260 | 3560 | 10 | 10 |  |  | 
CC(C)C[C@@H]1NC(=O)[C@@H](N(C)C(=O)[C@@H](NC(=O)[C@@H]2C[C@@H](F)CN2C(=O)C2(C(F)(F)F)CC(F)(F)C2)C2CC2)CCCCCCCN(C)C(=O)[C@H](Cc2cc(Cl)ccc2-c2cnc3c(cnn3C)c2)N(C)C1=O [Example 250] ({cBuCO(3,3-F2-1-CF3)}-[Pro(trans-4-F)][Gly(cPr)][NMehhhLys(Me)]L[X16]; lactam 3-C) |  |  |  | 5550 | 30 | 30 | 30 | 20 | 1620
